Test results taken from paper PMC10537280, “Chemo-/Regio-Selective Synthesis of Novel Functionalized Spiro[pyrrolidine-2,3′-oxindoles] under Microwave Irradiation and Their Anticancer Activity” (Molecules, 2023).
Read-outs that look alike come from different tables or passages of the source.

How the values were obtained:
[1] = tested on: human HepG2 cancer cell lines; assay: MTT cytotoxicity assay, liver cancer HepG2 cells; type: cell-based; conditions: for IC50: MTT, 72 h, 0.19–100 μM, means of at least three independent experiments in duplicates, read-out: HepG2 Cells IC50; for S.I. Selectivity index liver (IC50 normal cells/IC50 cancer cells): LO2 IC50 / HepG2 IC50
Protocol: (§1) Adenocarcinomic human alveolar basal epithelial (A549) and human hepatoma (HepG2) cancer cell lines, immortalized normal human liver (LO2), human bronchial epithelial (BEAS-2B cells were purchased from [NT], Manassas, VA, USA). […] Invitrogen, Waltham, MA, USA). All cells were incubated at 37 °C in a 5% humidified CO2 incubator). All test compounds were dissolved in DMSO at a final concentration of 50 mM and stored at -20 °C before use. Cytotoxicity was assessed by the MTT (5 mg/mL) assay, as described previously. Briefly, 5 × 10^3 cells per well were seeded in 96-well plates before drug treatments. […] Cells without drug treatment were used as controls. Subsequently, 10 μL of 5 mg/mL MTT solution was added to each well and incubated at 37 °C for 4 h, followed by the addition of 100 μL solubilization buffer (12 mM HCl in a solution of 10% SDS) and overnight incubation. The absorbance, A570 nm, was then determined in each well on the next day. The percentage of cell viability was calculated using the expression: % viability = Atreated/Acontrol × 100, and was given as cytotoxicity (Table 2 and Table 3; […]

[2] = tested on: human lung A549 cancer cell lines; assay: MTT cytotoxicity assay, lung cancer A549 cells; type: cell-based; conditions: for IC50: Homo sapiens, A549, MTT, 72 h, 0.19–100 μM, means of at least three independent experiments in duplicates, read-out: A549 Cells IC50
Protocol: as §1

[3] = tested on: immortalized liver LO2 normal cell lines; assay: MTT cytotoxicity assay, normal liver LO2 cells; type: cell-based; conditions: Homo sapiens, L02; MTT, 72 h, 0.19–100 μM; normal liver cells; read-out: LO2 Cells IC50
Protocol: as §1

[4] = tested on: immortalized lung BEAS-2B normal cell lines; assay: MTT cytotoxicity assay, normal lung BEAS-2B cells; type: cell-based; conditions: Homo sapiens, MTT, 72 h, 0.19–100 μM, normal lung cells, read-out: BEAS-2B Cells IC50
Protocol: as §1

[5] = tested on: human lung A549 cancer cell lines; set-up: method as in PMID 24063429; conditions: paclitaxel reference value; ref [80]; read-out: A549 Cells IC50; cited from earlier work
[6] = tested on: immortalized liver LO2 normal cell lines; conditions: paclitaxel reference value; ref [82]; read-out: LO2 Cells IC50; cited from earlier work
[7] = tested on: immortalized lung BEAS-2B normal cell lines; set-up: method as in PMID 24063429; conditions: paclitaxel reference value; ref [80]; read-out: BEAS-2B Cells IC50; cited from earlier work
[8] = tested on: human HepG2 cancer cell lines; conditions: paclitaxel reference value; ref [82]; read-out: HepG2 Cells IC50; cited from earlier work

SMILES	IC50 ([1]; Homo sapiens, HepG2, 72 h)	S.I. Selectivity index liver (IC50 normal cells/IC50 cancer cells) [1]	IC50 [1]	IC50 [2]	IC50 [3]	melting point	IC50 [4]	S.I. Selectivity index lung (IC50 normal cells/IC50 cancer cells) ([2]; BEAS-2B IC50 / A549 IC50)	IC50 [5]	IC50 [6]	IC50 [7]	IC50 [8]
COc1ccc(C2C([N+](=O)[O-])C3CCCN3C23C(=O)Nc2ccc(Br)cc23)cc1OCc1ccccc1 (stereo not shown) [Compound 4q, 2′-(3-(benzyloxy)-4-methoxyphenyl)-5-bromo-1′-nitro-1′,2′,5′,6′,7′,7a′-hexahydrospiro[indoline-3,3′-pyrrolizin]-2-one]	85.6 µM	0.54	86.5 µM	47.9 µM	46.8 µM	98 to 100 °C	> 100 µM					
COc1ccc(C2C([N+](=O)[O-])C3CCCN3C23C(=O)Nc2ccccc23)cc1 (stereo not shown) [Compound 4r, 2′-(4-methoxyphenyl)-1′-nitro-1′,2′,5′,6′,7′,7a′-hexahydrospiro[indoline-3,3′-pyrrolizin]-2-one]	> 100 µM			> 100 µM	> 100 µM	116 to 118 °C	> 100 µM					
COc1ccc(OC)c(C2C([N+](=O)[O-])C3CCCN3C23C(=O)Nc2ccccc23)c1 (stereo not shown) [Compound 4s, 2′-(2,5-dimethoxyphenyl)-1′-nitro-1′,2′,5′,6′,7′,7a′-hexahydrospiro[indoline-3,3′-pyrrolizin]-2-one]	> 100 µM			> 100 µM	> 100 µM	174 to 176 °C	> 100 µM					
COc1cccc(C2C([N+](=O)[O-])C3CCCN3C23C(=O)Nc2ccc(Br)cc23)c1 (stereo not shown) [Compound 4t, 5-bromo-2′-(3-methoxyphenyl)-1′-nitro-1′,2′,5′,6′,7′,7a′-hexahydrospiro[indoline-3,3′-pyrrolizin]-2-one]	46.1 µM	0.99		45.2 µM	45.5 µM	145 to 147 °C	67.7 µM	1.50				
COc1ccc(OC)c(C2C([N+](=O)[O-])C3CCCN3C23C(=O)Nc2ccc(Br)cc23)c1 (stereo not shown) [Compound 4u, 5-bromo-2′-(2,5-dimethoxyphenyl)-1′-nitro-1′,2′,5′,6′,7′,7a′-hexahydrospiro[indoline-3,3′-pyrrolizin]-2-one]	> 100 µM			> 100 µM	> 100 µM	190 to 192 °C	> 100 µM					
COc1ccc(C2C([N+](=O)[O-])C3CCCN3C23C(=O)Nc2ccccc23)cc1OC (stereo not shown) [Compound 4v, 2′-(3,4-dimethoxyphenyl)-1′-nitro-1′,2′,5′,6′,7′,7a′-hexahydrospiro[indoline-3,3′-pyrrolizin]-2-one]	> 100 µM			> 100 µM	> 100 µM	175 to 177 °C	> 100 µM					
COc1ccc(C2C([N+](=O)[O-])C3CCCN3C23C(=O)Nc2ccc(Br)cc23)cc1OC (stereo not shown) [Compound 4w, 5-bromo-2′-(3,4-dimethoxyphenyl)-1′-nitro-1′,2′,5′,6′,7′,7a′-hexahydrospiro [indoline-3,3′-pyrrolizin]-2-one]	> 100 µM			> 100 µM	> 100 µM	195 to 197 °C	> 100 µM					
CC(=O)O[C@H]1C(=O)[C@@]2(C)[C@H]([C@H](OC(=O)c3ccccc3)[C@]3(O)C[C@H](OC(=O)[C@H](O)[C@@H](NC(=O)c4ccccc4)c4ccccc4)C(C)=C1C3(C)C)[C@]1(OC(C)=O)CO[C@@H]1C[C@@H]2O [Paclitaxel]									0.003 µM	< 0.1 µM	0.1 µM	0.19 ± 0.4 µM
